Among the test systems are HS 578T breast; HCT-116 colon; OVCAR-3 ovarian; SNB-19 CNS; MDA-MB-231 breast; OVCAR-4 ovarian; OVCAR-5 ovarian; UACC-257 melanoma; SK-OV-3 ovarian; MDA-N.
Holding throughout (assay): DTP human tumour cell line panel, 48 h

Each structure is given as a SMILES string.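 Interpolation was linear, between the two tested concentrations surrounding the appropriate level; five concentrations were tested over 48 hours in 96-well plates. Abbreviation: GI50, concentration required for 50% inhibition of growth. TGI: concentration producing complete growth inhibition.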 Where a SMILES comes first, the peptide text is derived from it. [ ]: non-standard residue; d: D form. A value given as a limit tells only on which side of the number the result lay.

Usually GI50 stands for the concentration at which growth is held to half of that of the control. For orientation: TGI means the concentration giving total growth inhibition. On to `Cc1ccc2sc3c(NCCCN)nc4ccccc4c3c(=O)c2c1`, for which the GI50 was 2.05 µM with HS 578T breast; 1.8 µM in the test on HCT-116 colon; 1.82 µM with OVCAR-3 ovarian; 1.86 µM with SNB-19 CNS; 1.7 µM in the test with MDA-MB-231 breast; 2.16 µM with OVCAR-4 ovarian. Besides, the GI50 was 1.71 µM in the test on OVCAR-5 ovarian and 2.04 µM in the test with UACC-257 melanoma. The total growth inhibition concentration (TGI) amounted to 5.19 µM in the test with HS 578T breast; 3.42 µM in the test on HCT-116 colon; 3.32 µM with OVCAR-3 ovarian; 3.69 µM with SNB-19 CNS; 3.3 µM in the test on MDA-MB-231 breast; 4.69 µM in the test with OVCAR-4 ovarian. In addition, the concentration for total growth inhibition (TGI) in the test with OVCAR-5 ovarian is 3.27 µM; in the test with UACC-257 melanoma, 4.21 µM.
Turning to `COc1cc2nc(-c3cccs3)nc(Nc3ccccc3C(=O)NN)c2cc1OC`, the total growth inhibition concentration (TGI) in the test with HS 578T breast, in the test on SK-OV-3 ovarian, in the test with HCT-116 colon, with OVCAR-3 ovarian, in the test with SNB-19 CNS and in the test with MDA-MB-231 breast was more than 100 µM in each case. For the same compound, the total growth inhibition concentration (TGI) in the test with OVCAR-4 ovarian, with OVCAR-5 ovarian and in the test on UACC-257 melanoma was more than 100 µM in each case.
In the case of `Cc1cc(C)[n+]2c(c1)C=CC2`, the total growth inhibition concentration (TGI) was 38.6 µM with OVCAR-3 ovarian; more than 100 µM in the test with SNB-19 CNS; more than 100 µM in the test on OVCAR-4 ovarian; more than 100 µM with OVCAR-5 ovarian; more than 100 µM in the test with UACC-257 melanoma.
Turning to `CC1(C)CC(=O)c2c(N)n[nH]c2C1`, the concentration for total growth inhibition (TGI) in the test on HCT-116 colon, in the test with OVCAR-3 ovarian, with SNB-19 CNS, in the test on MDA-MB-231 breast, in the test on MDA-N and in the test with OVCAR-4 ovarian was more than 100 µM throughout. In addition, the TGI in the test with OVCAR-5 ovarian and with UACC-257 melanoma was more than 100 µM throughout.
As for `Clc1ccc(C2SCc3nc4ccccc4n32)cc1` (stereo not given), the concentration for total growth inhibition (TGI) was 69.9 µM in the test with SK-OV-3 ovarian, more than 100 µM with OVCAR-3 ovarian and 77 µM in the test with SNB-19 CNS.
In the case of `CCCCCCc1ccc(CCCCCCCC(=O)O)o1`, the TGI in the test with SK-OV-3 ovarian, with HCT-116 colon, in the test with OVCAR-3 ovarian, in the test with SNB-19 CNS, with MDA-N and in the test on OVCAR-4 ovarian was more than 100 µM throughout. In addition, the TGI in the test with OVCAR-5 ovarian and with UACC-257 melanoma was more than 100 µM in each case.
As for `C=CC(=O)N1C/C(=C\c2ccc(OC)cc2)C(=O)/C(=C/c2ccc(OC)cc2)C1`, the total growth inhibition concentration (TGI) was more than 28.7 µM in the test with HS 578T breast; 8.39 µM with SK-OV-3 ovarian; 0.686 µM in the test on HCT-116 colon; 5.67 µM in the test with OVCAR-3 ovarian; 28.3 µM in the test with SNB-19 CNS; 7.98 µM in the test on MDA-MB-231 breast. The total growth inhibition concentration (TGI) in the test on OVCAR-4 ovarian was 13.4 µM; in the test on OVCAR-5 ovarian, 16.2 µM; with UACC-257 melanoma, more than 31.6 µM.
As to `O=S(=O)(O)c1cc(S(=O)(=O)O)c2cc(N=Nc3ccc(N=Nc4ccc(/C=C/c5ccc(N=[N+]([O-])c6ccc(/C=C/c7ccc(N=Nc8ccc(N=Nc9ccc%10cc(S(=O)(=O)O)cc(S(=O)(=O)O)c%10c9)cc8)cc7S(=O)(=O)O)c(S(=O)(=O)O)c6)cc5S(=O)(=O)O)c(S(=O)(=O)O)c4)cc3)ccc2c1`, the TGI in the test on SK-OV-3 ovarian was more than 100 µM; with HCT-116 colon it was more than 100 µM; with OVCAR-3 ovarian, more than 31.6 µM; in the test with SNB-19 CNS, more than 100 µM; in the test on OVCAR-4 ovarian, more than 100 µM; in the test with OVCAR-5 ovarian, more than 100 µM. Also, the TGI in the test on UACC-257 melanoma is more than 100 µM.
In the case of `CC(C)OC1=C(CC2(C)OCCO2)C(=O)C12OCCO2`, the TGI in the test with HS 578T breast, in the test on SK-OV-3 ovarian, in the test with HCT-116 colon, with OVCAR-3 ovarian, in the test with SNB-19 CNS and with MDA-MB-231 breast was more than 100 µM each time. The TGI in the test on OVCAR-4 ovarian, with OVCAR-5 ovarian and in the test on UACC-257 melanoma was more than 100 µM in each case.
As to `C1=CC2C(C3CN(c4ccccc4)N=C13)C1C3C4C=CC21C=CC43` (stereo not given), the TGI in the test with HS 578T breast, in the test on SK-OV-3 ovarian, in the test on HCT-116 colon, in the test on OVCAR-3 ovarian, in the test with SNB-19 CNS and in the test on MDA-MB-231 breast was more than 100 µM throughout. In addition, the TGI in the test on OVCAR-4 ovarian, with OVCAR-5 ovarian and in the test with UACC-257 melanoma was more than 100 µM each time.
With `CC(=O)/C=C(/C)[O-].CC(=O)/C=C(/C)[O-].CC(=O)[CH-]C(C)=O.CC(=O)[CH-]C(C)=O.[Zr+4]`, the GI50 with SK-OV-3 ovarian is more than 100 µM; with HCT-116 colon, 3.89 µM; with OVCAR-3 ovarian, more than 100 µM; in the test with SNB-19 CNS it was more than 100 µM; in the test with OVCAR-4 ovarian, more than 100 µM; in the test on OVCAR-5 ovarian, more than 100 µM. The GI50 in the test with UACC-257 melanoma is more than 100 µM. Further, the TGI in the test on SK-OV-3 ovarian is more than 100 µM; in the test on HCT-116 colon it was 16.3 µM; with OVCAR-3 ovarian, more than 100 µM; with SNB-19 CNS, more than 100 µM; with OVCAR-4 ovarian, more than 100 µM; in the test on OVCAR-5 ovarian, more than 100 µM. The compound also registered a TGI in the test on UACC-257 melanoma of more than 100 µM.
Regarding `CC(C)C[C@H](NC(=O)[C@H](CC(C)C)NC(=O)[C@@H](Cc1c[nH]c2ccccc12)NC(=O)[C@H](Cc1ccccc1)NC(=O)[C@@H](Cc1c[nH]c2ccccc12)NC(=O)[C@H](CCC(N)=O)NC(=O)[C@@H](CCC(N)=O)NC(=O)[C@@H]1CCCN1C(=O)[C@@H](CCCCN)NC(=O)[C@H]1CCCN1C(=O)[C@H](N)CCCN=C(N)N)C(N)=O` (H-[dR][dP][dK]P[dQ]Q[dW]F[dW]LL-NH2), the TGI in the test on SK-OV-3 ovarian, in the test with HCT-116 colon, with OVCAR-3 ovarian, in the test on SNB-19 CNS, with OVCAR-4 ovarian and with OVCAR-5 ovarian was more than 100 µM each time. In addition, in the test with UACC-257 melanoma, the total growth inhibition concentration (TGI) is more than 100 µM.
Turning to `N#CC1=C(O)NC(O)=C(C#N)C1c1c(Cl)cccc1Cl`, the total growth inhibition concentration (TGI) with SK-OV-3 ovarian was 69.1 µM; in the test with HCT-116 colon, more than 100 µM; in the test with OVCAR-3 ovarian, more than 100 µM; in the test with SNB-19 CNS, more than 100 µM; in the test with OVCAR-4 ovarian, more than 100 µM; with OVCAR-5 ovarian it was 98.5 µM. In the test on UACC-257 melanoma, this compound displayed a TGI of more than 100 µM.
As for `COc1cc(C2c3cccc4cccc(c34)C3CCC(=O)N32)cc(OC)c1O` (stereo not given), the TGI with SK-OV-3 ovarian, in the test on HCT-116 colon, with OVCAR-3 ovarian, with SNB-19 CNS, with MDA-N and with OVCAR-4 ovarian was more than 50 µM throughout. Also, the TGI with OVCAR-5 ovarian and with UACC-257 melanoma was more than 50 µM each time.
On to `O=C1C(Cl)N(c2ccc([N+](=O)[O-])cc2)C1c1c[nH]c2ccccc12` (stereo not given), for which the total growth inhibition concentration (TGI) in the test on SK-OV-3 ovarian, in the test on HCT-116 colon, in the test with OVCAR-3 ovarian, with SNB-19 CNS, in the test with OVCAR-4 ovarian and in the test with OVCAR-5 ovarian was more than 100 µM throughout. In the test on UACC-257 melanoma, this compound showed a concentration for total growth inhibition (TGI) of more than 100 µM.
`N=C(N)SCc1nc(-c2ccc(Cl)cc2)no1`: the TGI in the test on HS 578T breast was more than 100 µM; with SK-OV-3 ovarian, more than 100 µM; with HCT-116 colon, 31.9 µM; in the test on OVCAR-3 ovarian, 26.2 µM; in the test on SNB-19 CNS it was more than 100 µM; in the test with MDA-MB-231 breast, 35.9 µM. In addition, the concentration for total growth inhibition (TGI) in the test with OVCAR-4 ovarian was 29.1 µM; with OVCAR-5 ovarian, 27.8 µM; in the test with UACC-257 melanoma, more than 100 µM.
With `O=C1Sc2ccccc2C(=O)N2CCSC12` (stereo not given), the concentration for total growth inhibition (TGI) in the test with SK-OV-3 ovarian, in the test with HCT-116 colon, in the test on OVCAR-3 ovarian, in the test on SNB-19 CNS, with OVCAR-5 ovarian and in the test with UACC-257 melanoma was more than 100 µM throughout.
Regarding `COc1cc2nc(-c3cccs3)nc(N3CCN(c4ccccc4)CC3)c2cc1OC`, the TGI in the test with HS 578T breast, with SK-OV-3 ovarian, with HCT-116 colon, in the test on OVCAR-3 ovarian, in the test with SNB-19 CNS and in the test on MDA-MB-231 breast was more than 100 µM throughout. In addition, the total growth inhibition concentration (TGI) in the test on OVCAR-4 ovarian, in the test with OVCAR-5 ovarian and in the test with UACC-257 melanoma was more than 100 µM each time.
On to `CCOC(=O)Cc1[nH]c(C(=O)c2ccccc2)cc1C(=O)c1ccccc1`, for which the TGI in the test with HS 578T breast was more than 100 µM; with SK-OV-3 ovarian it was more than 100 µM; with HCT-116 colon it was 33.4 µM; in the test on OVCAR-3 ovarian, more than 100 µM; with SNB-19 CNS it was more than 100 µM; with MDA-MB-231 breast, more than 10 µM. Further, the concentration for total growth inhibition (TGI) with OVCAR-4 ovarian was 59.8 µM; with OVCAR-5 ovarian it was more than 10 µM; in the test on UACC-257 melanoma, more than 10 µM.
`CCCN=C1NC(C)=CSC(Nc2ccccc2)=C1C#N`: the TGI in the test on SK-OV-3 ovarian, in the test with HCT-116 colon, in the test with OVCAR-3 ovarian, in the test with SNB-19 CNS, with MDA-MB-231 breast and with MDA-N was more than 100 µM throughout. In addition, the total growth inhibition concentration (TGI) in the test with OVCAR-4 ovarian and in the test on OVCAR-5 ovarian was more than 100 µM throughout.
As to `Cc1ccc(C)n1-c1ccccc1C1C=Cn2c(=O)oc3c(OC(C)C)c(OC(C)C)c(O)c1c32` (stereo not given), the TGI in the test on HS 578T breast was more than 100 µM; in the test on SK-OV-3 ovarian, more than 100 µM; in the test with HCT-116 colon it was more than 100 µM; in the test on OVCAR-3 ovarian, more than 100 µM; with SNB-19 CNS, more than 100 µM; in the test with MDA-MB-231 breast it was 78.8 µM. Moreover, the concentration for total growth inhibition (TGI) with OVCAR-4 ovarian, with OVCAR-5 ovarian and in the test on UACC-257 melanoma was more than 100 µM in each case.
Take `CC(C)(C)OC(=O)N1C(=O)C2CCCC21` (stereo not given): the TGI with HS 578T breast, with SK-OV-3 ovarian, in the test on HCT-116 colon, with OVCAR-3 ovarian, in the test with SNB-19 CNS and in the test on MDA-MB-231 breast was more than 100 µM in each case. The TGI in the test with OVCAR-4 ovarian, in the test on OVCAR-5 ovarian and in the test with UACC-257 melanoma was more than 100 µM throughout.
